Measured values from patent US20080299188A1, “CONTROLLED RELEASE DOSAGE FORMS COMBINING IMMEDIATE RELEASE AND SUSTAINTED RELEASE OF LOW-SOLUBILITY DRUG” (Pfizer Inc., priority 2007, published 2008).
Structures can show the parent of a compound that is named as a salt.

What was measured:
Assay type in all cases: physicochemical
[1] = microcentrifuge dissolution test in MFD solution; details: during the initial ninety minutes
Procedure: Microcentrifuge dissolution tests were performed to evaluate the hydrochloride crystalline salt form of ziprasidone to verify that it was a solubility-improved form of ziprasidone. For this test, a sufficient amount of ziprasidone hydrochloride monohydrate was added to a microcentrifuge test tube so that the concentration of ziprasidone would have been 200 μgA/mL, if all of the ziprasidone had dissolved. The tests were run in duplicate. The tubes were placed in a 37° C. temperature-controlled chamber, and 1.8 mL MFD solution at pH 6.5 and 290 mOsm/kg was added to each respective tube. The samples were quickly mixed using a vortex mixer for about 60 seconds. The samples were centrifuged at 13,000 G at 37° C. for 1 minute prior to collecting a sample. The resulting supernatant solution was then sampled and diluted 1:5 (by volume) with methanol. Samples were analyzed by high-performance liquid chromatography (HPLC) at a UV absorbance of 315 nm using a Zorbax RxC8 Reliance column and a mobile phase consisting of 55% (50 mM potassium dihydrogen phosphate, pH 6.5)/45% acetonitrile. Drug concentration was calculated by comparing UV absorbance of samples to the absorbance of drug standards. The contents of each tube were mixed on the vortex mixer and allowed to stand undisturbed at 37° C. until the next sample was taken. Samples were collected at 4, 10, 20, 40, 90, and 1200 minutes following administration to the MFD solution.
A similar test was performed with the crystalline ziprasidone free base as a control, and a sufficient amount of material was added so that the concentration of compound would have been 200 μgA/mL, if all of the ziprasidone had dissolved.
The concentrations of ziprasidone obtained in these tests were used to determine the maximum dissolved concentration of ziprasidone (“MDC90”) and the area under the concentration-versus-time curve (“AUC90”) during the initial ninety minutes.

[2] = solubility in phosphate buffered saline (pH 6.5); details: expressed as the free base
Text: An example of a drug having a crystalline highly soluble salt form is ziprasidone. Ziprasidone hydrochloride monohydrate has a solubility of about 10 μgA/mL (expressed as the free base) in phosphate buffered saline (pH 6.5), whereas the free base form has a solubility of less than about 0.2 μgA/mL under the same conditions. Thus, crystalline ziprasidone hydrochloride is a solubility-improved form relative to the crystalline free base form of drug.

[3] = in vitro membrane permeation test
Procedure: The ziprasidone coated crystals were evaluated in vitro using a membrane permeation test. An Accurel® PP 1E microporous polypropylene membrane was obtained from Membrana GmbH (Wuppertal, Germany). The membrane was washed in isopropyl alcohol and rinsed in methanol in a sonicating bath for 1 minute at ambient temperature, and then allowed to air dry at ambient temperature. The feed side of the membrane was then plasma-treated to render it hydrophilic by placing a sample of the membrane in a plasma chamber. The atmosphere of the plasma chamber was saturated with water vapor at a pressure of 550 mtorr. A plasma was then generated using radio frequency (RF) power inductively coupled into the chamber via annular electrodes at a power setting of 50 watts for 45 seconds. The contact angle of a drop of water placed on the surface of the plasma-treated membrane was about 40°. […]
To form the feed solution, a 1.39 mg sample of the coated crystals was weighed into the feed reservoir. […] Samples were then diluted in […] IPA and analyzed using HPLC. […]
The maximum flux of drug across the membrane (in units of mgA/cm^2-min) was determined by performing a least-squares fit to the data in Table 3 from 0 to 60 minutes to obtain the slope, multiplying the slope by the permeate volume (5 ml), and dividing by the membrane area (4.9 cm^2).

Row | AUC90 (area under the concentration-versus-time curve) [1] [min·µgA/mL] | MDC90 (maximum dissolved concentration of ziprasidone) [1] [µgA/mL] | solubility ([2]; listed as free base form) | AUC90 (area under the concentration-versus-time curve) ([1]; hydrochloride monohydrate) [min·µgA/mL] | MDC90 (maximum dissolved concentration of ziprasidone) ([1]; hydrochloride monohydrate) [µgA/mL] | Concentration (permeate solution) ([3]; feed MFD solution 100 μgA/ml if all dissolved, permeate 60 wt % decanol in decane, 37° C., time 0 min) [μgA/ml] | Initial Flux of Ziprasidone ([3]; least-squares fit of Table 3 data from 0 to 60 minutes, permeate volume 5 ml, membrane area 4.9 cm^2) [µgA/cm²·min] | solubility ([2]; hydrochloride monohydrate) | SMILES
1 | 120 | 2 | less than 0.2 μgA/mL |  |  |  |  |  | O=C1Cc2cc(CCN3CCN(c4nsc5ccccc45)CC3)c(Cl)cc2N1 [Ziprasidone Free Base, ziprasidone]
2 |  |  |  | 1700 | 22 | 0.5 | 0.16 | about 10 μgA/mL | O=C1Cc2cc(CCN3CCN(c4nsc5ccccc45)CC3)c(Cl)cc2N1 [Ziprasidone hydrochloride monohydrate, ziprasidone hydrochloride monohydrate]
